Laboratory results from PMC4726324, “Rational steering of insulin binding specificity by intra-chain chemical crosslinking” (Scientific Reports, 2016).
Like-named read-outs stand apart in the source and are kept apart here.

Conditions: triazole bond
[1] = the molecule shown is the open-chain precursor, 17-membered ring, CuSO4/ascorbic acid, H2O/tBuOH 2:1, 0.08 mM, 25.0 °C

Substance | ring closure, yield after HPLC [1] | other results
H-Gly-Gly-Phe-Tyr-Nva(δN3)-Pro-Prg-Thr-OH? | – | ring closure, yield after HPLC (the molecule shown is the open-chain precursor, 14-membered ring, CuSO4/ascorbic acid, H2O/tBuOH 2:1, 0.08 mM, 25.0 °C): 52%
cyclo[GB23-G-F-(NMe)A-Nva(δN3)-P-Prg-TB30] | – | ring closure, yield after HPLC (14-membered ring, Cu(I)/TBTA): 49%
H-Gly-Phe-Phe-Prg-Thr-Pro-Nva(δN3)-Thr-OH? | 45% | –
H-Gly-Phe-Phe-Nva(δN3)-Thr-Pro-Prg-Thr-OH | 40% | –
H-Gly-Phe-Phe-Tyr-Nva(δN3)-Pro-Prg-Thr-OH? | – | ring closure, yield after HPLC (the molecule shown is the open-chain precursor, 14-membered ring, CuSO4/ascorbic acid, H2O/tBuOH 2:1, 25.0 °C): 37%
H-Gly-Gly-Phe-Nva(δN3)-Thr-Pro-Prg-Thr-OH? | 36% | –
